Consider nine compounds from patent USRE42930E1, “Aziridinyl-epothilone compounds” (Bristol-Myers Squibb Company, priority 2006, dated 2011).

Where two headings read alike, the source gives them in different places.

Data set [1] has as its system FRα(−) M109 murine lung carcinoma. The data set can be described thus: In vivo antitumor efficacy, FRα(−) M109 parent tumor model. Details: species or system mice. Conditions: bolus IV; FIG. 5. The text has this: (§1) Female CD2F1 mice (Harlan Sprague-Dawley Inc., 20-22 g) maintained in a controlled environment and provided with water and food ad libitum were used in these studies. The murine FRα(−) Madison 109 (M109) lung carcinoma (Marks et al., 1977) and the FR-expressing (FRα(+)) 98M109 variant were used to evaluate the efficacy of the epothilone, epothilone analog (e.g., epothilone derivative), folate-epothilone conjugate, or folate-epothilone analog conjugate. In addition, the human head and neck epidermoid carcinoma KB grown in nude mice was also used for this purpose. […]
(§2) Tumor response was determined by measurement of tumors with a caliper twice a week, until the tumors reached a predetermined “target” size of 1 gm. […]
(§3) Antitumor activity was evaluated at the maximum tolerated dose (MTD) which is defined as the dose level immediately […] which excessive toxicity (i.e. more than one death) occurred. When death occurred, the day of death was recorded. […]
(§4) To estimate tumor cell kill, the tumor volume doubling time (TVDT) was first calculated with the formula: TVDT=Median time (days) for control tumors to reach target size−Median time (days) for control tumors to reach half the target size And, Log cell kill=T-C÷(3.32×TVDT) Statistical evaluations of data were performed using Gehan's generalized Wilcoxon test.

The next data set has as its target T1, folate receptor (FR) (Homo sapiens, UniProt P15328).
T1 construct: FR expressed on KB tumor cells grown to confluence; endogenous in cells; host or cells: KB tumor cells
Briefly: Displacement of radiolabeled folic acid from FR expressed on KB tumor cells. It is filed as binding. The conditions noted are these: compared to folic acid (RA = 1.0). How it is done:
The binding of these folate conjugates of Compound AA to FR was determined in an assay that measures displacement of radiolabeled folic acid from FR expressed on KB tumor cells grown to confluence.

For data set [2], the system named is KB nasopharyngeal epidermoid carcinoma xenografts. Briefly: In vivo antitumor efficacy, KB FRα(+) xenografts in nude mice. Conditions: KB model, FIG. 4.
Text: as §1, §2, §3, §4

The subject of the next data set is FRα(+) 98M109 tumors. The data set can be described thus: In vivo antitumor efficacy, FRα(+) 98M109 tumors with folate analog competition. Set-up: species or system mice. Conditions: folate analog at 20-fold excess of the dose of compound J; FIG. 6.
Text: as §1, §2, §3, §4

Data set [3] has as its system A2780 ovarian carcinoma cell line. Briefly: In vitro MTS proliferation/cytotoxicity assay, A2780. The class given is cell-based, human. How it is done:
(§5) In vitro cytotoxicity was assessed in tumor cells using a tetrazolium-based colorimetric assay which takes advantage of the metabolic conversion of MTS (3-(4,5-dimethylthiazol-2-yl)-5-(3-carboxymethoxyphenyl)-2-(4-sulphenyl)-2H-tetrazolium, inner salt) to a reduced form that absorbs light at 492 nm. Cells were seeded 24 hr prior to addition of the epothilone, epothilone analog, conjugated epothilone, or conjugated epothilone analog. Following a 72 hour incubation at 37° C. with serially diluted compound, MTS, in combination with the electron coupling agent phenazine methosulfate, was added to the cells. The incubation was continued for 3 hours, then the absorbency of the medium at 492 nm was measured with a spectrophotometer to obtain the number of surviving cells relative to control populations. The results are expressed as median cytotoxic concentrations (IC50 values).
(§6) Other epothilone analogs, e.g., aziridinyl epothilones, are known in the art (see, e.g., U.S. Pat. No. 6,399,638; Regueiro-Ren, A, et al. (2001) Org. Letters. 3:2693-96) and show potent antitumor cytotoxicity. For example, an MTS assay that compared the relative cytotoxic potency of a number of epothilone analogs against a pair of taxane-resistant cancer cell lines (HCTVM46 and […]) was conducted (see Table 1). HCTVM46 is a human colon carcinoma cell line derived from the sensitive HCT116 parent line, and is resistant to taxanes due to overexpression of the 170 kD p-glyprotein drug efflux transporter. A2780Tax is a human ovarian carcinoma cell line derived from the parent A2780 line, and is resistant to paclitaxel as a result of a mutation in the tubulin amino acid sequence that impairs the ability of paclitaxel to bind.
(§7) As is shown in Table 1, various aziridinyl epothilone analogs (Compounds CC-EE) show potent antitumor activity against both the HCT116 colon and A2780 ovarian carcinoma cell lines, compared to other known antitumor agents, e.g., paclitaxel, compound AA, and epothilone B.

Data set [4] deals with HCT116 colon carcinoma cell line. The data set can be described thus: cells. The class given is cell-based, human. Here is the method: as §5, §6, §7
For a further data set, the system named is HCT116VM46. Briefly: In vitro MTS cytotoxicity assay, taxane-resistant HCT116VM46 (R/S ratio). It is filed as cell-based, human. The conditions noted are these: R/S ratio = HCT116VM46 IC50/HCT116 IC50. Here is the method: as §5, §6
The subject of another data set is A2780Tax. It is filed as cell-based, human. How it is done: as §5, §6
The test system of data set [5] is clonogenic KB cancer cells. The data set can be described thus: Clonogenic cell survival (colony formation) assay. The class given is cell-based, human. Here is the method: Cancer cells were seeded at 3.0E+05 cells in a T75 flask with 10 ml of RPMI1640 media, free of folic acid, and containing 10% fetal bovine serum and 25 mM HEPES. Cells were grown in a 37° C. incubator containing 5% CO2 for 2 days. On day 2, supernatants were removed from the flasks, and the flasks were divided into 2 groups. One group of cells were incubated with 5 ml of media containing […] of folic acid (Sigma) for 30 minutes and the others were grown in 5 ml of media without added folic acid. Cells were then treated with 20 nM of epothilone, epothilone analog, conjugated epothilone, or conjugated epothilone analog for one hour. At the end of the incubation, the drugs were removed from the flasks and the cells were washed with PBS buffer 3×. After washing, 5 ml of complete media were added into each flask, and the cell was grown in the CO2 incubator for 23 hours. The next morning, the cells were removed from the flasks by trypsinization, cell numbers were determined, and then cells were plated in a 6 well plates. Ten days after plating, colonies were stained with crystal violet and counted. The surviving fractions were determined.
This is important because it is the aziridine epothilone analog, e.g., Compound G, that mediates the antitumor effects upon release from folic acid. […] The concentration needed to kill 90% of clonogenic KB cancer cells (IC90) was determined after a drug exposure duration of 17 hours.

Setting [6] is: Homo sapiens, A2780, MTS assay, mean IC50 ± SD from four separate experiments, read-out: A2780 IC5.
[7] abbreviates: Homo sapiens, A2780, read-out: A2780 IC5 (nM).
[8] abbreviates: Homo sapiens, HCT-116, read-out: HCT116 IC50 (nM).

T1 sequence (P15328 25-234): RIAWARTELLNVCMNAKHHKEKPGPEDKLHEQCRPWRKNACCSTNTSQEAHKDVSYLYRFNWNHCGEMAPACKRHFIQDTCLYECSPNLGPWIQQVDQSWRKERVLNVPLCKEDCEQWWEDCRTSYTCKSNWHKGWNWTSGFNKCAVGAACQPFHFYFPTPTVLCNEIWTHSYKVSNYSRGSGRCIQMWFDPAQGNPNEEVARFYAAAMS

Turning to `C/C(=C\c1csc(C)n1)[C@@H]1C[C@H]2[C@@H](CCC[C@H](C)[C@H](O)[C@@H](C)C(=O)C(C)(C)[C@@H](O)CC(=O)O1)N2CCOC(=O)OCCSSC[C@H](NC(=O)[C@H](CC(=O)O)NC(=O)[C@H](CCCNC(=N)N)NC(=O)[C@H](CC(=O)O)NC(=O)CC[C@H](NC(=O)c1ccc(NCc2cnc3nc(N)[nH]c(=O)c3n2)cc1)C(=O)O)C(=O)O` (some centres unmarked) [Compound J], the “antitumor activity in FRα(−) M109 parent tumor model” value in data set [1] was “poor activity at all dose levels tested”. The “relative affinity (RA) for folate receptor” value on folate receptor (FR) came to 0.77. For the same compound, in data set [2] (dose levels below MTD), the “toxicity at two lower dose levels” value is reported as “minimal toxicity”. In [2] (versus ixabepilone), the “antitumor effects compared at the MTDs” value is given as “superior antitumor effects than ixabepilone”. Also, the “effect of co-administration of a folate analog on antitumor effects” value in the data set with FRα(+) 98M109 tumors is given as “protect FRα(+) 98M109 tumors from the antitumor effects of compound J”.
Consider `C/C(=C\c1csc(C)n1)[C@@H]1C[C@@H]2O[C@]2(C)CCC[C@H](C)[C@H](O)[C@@H](C)C(=O)C(C)(C)[C@@H](O)CC(=O)N1` [ixabepilone], for which the “antitumor activity in FRα(−) M109 parent tumor model” value in data set [1] is “active at its MTD”.
Consider `C/C(=C\c1csc(CN)n1)C1C[C@@H]2O[C@]2(C)CCCC(C)[C@H](O)[C@@H](C)C(=O)C(C)(C)[C@@H](O)CC(=O)O1` (some centres unmarked) [Compound AA], for which the IC50 in data set [3] (setting [6]) turned out to be 1.1 ± 0.4 nM; in [4] (Homo sapiens, HCT-116, MTS assay, mean IC50 ± SD from four separate experiments, read-out: HCT116 IC50) it was 1.2 ± 0.3 nM. Further, the “R/S Ratio (HCT116)” value in the data set on HCT116VM46 came out at 14.8. Besides, in the data set with A2780Tax, the “R/S Ratio (A2780)” value is given as 3.
On to `CC(=O)O[C@H]1C(=O)[C@@]2(C)[C@H]([C@H](OC(=O)c3ccccc3)[C@]3(O)C[C@H](OC(=O)[C@H](O)[C@@H](NC(=O)c4ccccc4)c4ccccc4)C(C)=C1C3(C)C)[C@]1(OC(C)=O)CO[C@@H]1C[C@@H]2O` [paclitaxel], for which the IC50 in [3] (setting [6]) was 3.1 ± 1 nM. Also, the “R/S Ratio (HCT116)” value in the data set on HCT116VM46 is 150.
As to `Nc1nc2ncc(CNc3ccc(C(=O)N[C@@H](CCC(=O)O)C(=O)O)cc3)nc2c(=O)[nH]1` [folic acid], the “relative affinity (RA) for folate receptor” value on folate receptor (FR) is on record as 1.0.
`C/C(=C\c1csc(C)n1)[C@@H]1C[C@H]2[C@@H](CCCC(C)[C@H](O)[C@@H](C)C(=O)C(C)(C)[C@@H](O)CC(=O)O1)N2CCO` (relative stereo) [Compound G, [1S-[1R*,3R*(E),7R*,10S*,11R*,12R*,16S*]]-7,11-Dihydroxy-17-[2-hydroxyethyl]-8,8,10,12-tetramethyl-3-[1-methyl-2-(2-methyl-4-thiazolyl)ethenyl]-4-oxa-17-azabicyclo[14.1.0]heptadecane-5,9-dione]: in [5] (IC90, KB cells, 17 hours), the “fold more potent than compound AA” value is given as around 4 fold, the “fold more potent than compound CC” value is given as around 2 fold and the “fold more potent than ixabepilone” value is reported as around 6 fold. Also, the “concentration needed to kill 90% of clonogenic KB cancer cells (IC90)” value in data set [5] (drug exposure duration of 17 hours, FIG. 3) is reported as 4.3 nM.
In the case of `C/C(=C\c1csc(C)n1)C1C[C@H]2[C@@H](CCCC(C)[C@H](O)[C@@H](C)C(=O)C(C)(C)[C@@H](O)CC(=O)O1)N2C` (some centres unmarked) [DD], the figures for the IC50 in data set [3] (setting [7]) and in data set [4] (setting [8]) were 0.25 ± 0.06 nM and 0.37 ± 0.13 nM, respectively. For the same compound, the “R/S Ratio (HCT116)” value with HCT116VM46 is 0.6. Besides, in the data set on A2780Tax, the “R/S Ratio (A2780)” value came out at 4.1.
On to `C/C(=C\c1csc(C)n1)C1C[C@@H]2N[C@@H]2CCCC(C)[C@H](O)[C@@H](C)C(=O)C(C)(C)[C@@H](O)CC(=O)O1` (some centres unmarked) [Compound CC], for which the IC50 in [3] (setting [7]) is 3.4 ± 1.5 nM; in data set [4] (setting [8]) it was 4.2 ± 2.8 nM. Moreover, the “R/S Ratio (HCT116)” value with HCT116VM46 was found to be 3.1. Further, in the data set with A2780Tax, the “R/S Ratio (A2780)” value was 4.7.
With `C/C(=C\c1csc(C)n1)[C@@H]1C[C@@H]2O[C@]2(C)CCC[C@H](C)[C@H](O)[C@@H](C)C(=O)C(C)(C)[C@@H](O)CC(=O)O1` [Epothilone B], the IC50 in data set [3] (MTS assay, mean IC50 ± SD from four separate experiments, read-out: A2780 IC5) was 0.23 ± 0.09 nM; in data set [4] (MTS assay, mean IC50 ± SD from four separate experiments, read-out: HCT116 IC50), 0.4 ± 0.13 nM. In the data set on HCT116VM46, the “R/S Ratio (HCT116)” value was 0.5. Further, the “R/S Ratio (A2780)” value in the data set with A2780Tax was found to be 2.5.
